Experimental data as given in paper PMC7070733 (Molecules, 2020).
≈ marks a conversion by molar mass, not a printed value. Where “and” joins values, the source holds several entries; their conditions need not be identical. Equal entries are not always repeated. Entries after “also recorded” stand apart in the source; their conditions may differ.

Assays:
C. perfringens NA = type: biochemical; settings: for IC50 NA-C. perfringens / IC50: MUNANA substrate; for IC50 NA-C. perfringens: nd = no detection
[1] = test system: endonuclease activity of RNA polymerase in influenza A virus; design: method as in earlier work; settings: ref 40 (Kuzuhara et al. 2009); cited from earlier work
[2] = test system: influenza virus replication; design: method as in PMID 16137775; settings: in vitro; cited from earlier work
H1N1 NA = H1N1 NA (Influenza A virus, UniProt Q9IGQ6); experiment: biochemical; type: biochemical
H1N1 NA, sequence (Q9IGQ6 whole entry, looked up): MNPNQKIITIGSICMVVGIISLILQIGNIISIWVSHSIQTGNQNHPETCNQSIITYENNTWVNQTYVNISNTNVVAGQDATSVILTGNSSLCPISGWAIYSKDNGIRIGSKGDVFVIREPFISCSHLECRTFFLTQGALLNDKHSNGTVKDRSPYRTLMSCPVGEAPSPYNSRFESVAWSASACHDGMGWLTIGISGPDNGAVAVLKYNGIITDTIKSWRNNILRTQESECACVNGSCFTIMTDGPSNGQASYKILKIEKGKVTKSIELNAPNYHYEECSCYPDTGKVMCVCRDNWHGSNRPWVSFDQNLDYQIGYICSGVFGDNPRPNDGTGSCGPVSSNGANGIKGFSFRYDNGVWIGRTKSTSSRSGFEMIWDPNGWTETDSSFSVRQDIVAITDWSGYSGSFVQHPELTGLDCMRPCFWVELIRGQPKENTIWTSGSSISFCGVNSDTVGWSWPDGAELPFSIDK

| SMILES | IC50 NA-C. perfringens (C. perfringens NA) | inhibition of endonuclease activity of RNA polymerase (in words) [1] | inhibition of influenza virus replication (in words) [2] | activity against H1N1 NA (in words) (H1N1 NA) | IC50 (H1N1 NA; IC50 H1N1 NA) [µM] | IC50 (H1N1 NA; IC50 NA-H1N1) [µM] | activity against C. perfringens NA (in words) (C. perfringens NA) | IC50 (C. perfringens NA) [µM] | melting point [°C] | maximum inhibition against C. perfringens-NA (C. perfringens NA) [%] |
| --- | --- | --- | --- | --- | --- | --- | --- | --- | --- | --- |
| CC(=O)N[C@H]1[C@H]([C@H](O)[C@H](O)CO)OC(C(=O)O)=C[C@@H]1O [DANA, 2,3-didehydro-2-deoxy-N-acetylneuraminic acid, reference compound] | 28.79 µg/mL (≈ 98.8 µM) | – | – | – | – | – | – | – | – | – |
| Oc1cc(O)c2c(c1)OC(c1ccc(O)c(O)c1)C(O)C2 (stereo not drawn) [GC4, catechin] | 17.48 µg/mL (≈ 60.2 µM) | inhibited | good inhibition | moderately active; also recorded: moderate activity | 91 | 90.6 | moderately active; also recorded: moderate activity | 60.3 | – | – |
| C[C@H]1C(=O)CC[C@@H]2[C@]1(C)CC[C@H]1[C@@]2(C)CC[C@@]2(C)[C@@H]3CC(C)(C)CC[C@]3(C)CC[C@]12C [GC1, Friedeline] | – | – | – | inactive | – | – | not active | – | – | – |
| COC(=O)/C(C)=C/C(O)CC(C)C1(C)CC=C2C3CCC4C(C)(C)C(O)CCC4(C)C3(O)CCC21C (stereo not drawn) [GC2, Methyl (24E)-3a,9,23-trihydroxy-17,14-friedolanostan-14,24-dien-26-oate] | 81.78 µg/mL and 81.72 µg/mL | – | – | did not show any significant activity; also recorded: less active | – | 1920 | less active; also recorded: satisfactory inhibition | 123 | 130 to 135 | 79 |
